Residues, ends and D or L forms follow the SMILES beside them. *: point of attachment. Palmitoyl = CCCCCCCCCCCCCCCC(=O)*
Test: Franz cell ex vivo skin explant penetration with 3D OrbiSIMS analysis
Format: in vitro ADME, human
Conditions: after 1 hour in Franz cell; formulation with glycerin+methyl gluceth-20 versus glycerin only (FIG. 1)
Experimental: For ex vivo analysis, full thickness human skin tissue was removed during cosmetic surgery from Caucasian female donors (aged 35-70). The explant was frozen immediately post-surgery, shipped and stored at −20° C. prior to use.
The tissue was then defrosted, cut and mounted, dermal side down, in a Franz-type static diffusion cell set-up (Franz, 1975), with an exposed surface area of 1.1 cm^2. Infinite doses of the cosmetic formulations were applied to the donor chamber, with the explant exposed to the formulations for 1 hour in a water bath set to 36.5° C. Sink conditions were maintained throughout the experiments.
After 1 hour, the Franz cell was dismantled, excess formulation was removed with a dry sponge and the skin explant was wiped with a sponge soaked in Teepol Solution (3% v/v). Next, the explant was dehydrated under vacuum at room temperature for 24 hours before 3D OrbiSIMS analysis 3D OrbiSIMS Analysis […]
A 20 KeV Ar 3000^+ analysis beam with a diameter of 20 μm was used as the primary ion source. Samples were analysed at ambient temperature across a 400×400 μm area in positive polarity with sawtooth raster mode and a total crater size of 486×486 μm. […] Mass spectra were recorded at a resolution of 240,000 at m/z 200 in the mass range of 75 to 1,125 m/z. […]

Pal-GHK peptide ion intensity in skin explant: more peptide ion present
Compound: CCCCCCCCCCCCCCCC(=O)NCC(=O)N[C@@H](Cc1c[nH]cn1)C(=O)N[C@@H](CCCCN)C(=O)O [Pal-GHK, N-Palmitoyl-Gly-His-Lys] (Palmitoyl-Gly-His-Lys-OH; C-terminus assumed)
